Experimental data as given in US20060046972A1, “Cytotoxic nucleoside analog compound 003 for treating cancer” (Parker Hughes Institute, priority 2004, published 2006).

How the values were obtained:
MOLT-3, human T lymphoma = assay: DNA flow cytometry of cell cycle arrest, MOLT-3; assay type: cell-based; settings: 100 μM, 48 hour
Protocol: (§1) Exponentially growing tumor cells were cultured at 1×10^6 cells/ml in clonogenic medium (RPMI 1640 medium +1% penicillin/streptomycin +10% heat-inactivated fetal bovine serum, 2 mML-glutamine, and 10 mM Hepes buffer) in the presence or absence of 100 μM compound 003 for 48 hour at 37° C., 5% CO2. At 48 h, cells were washed two times in fresh clonogenic medium, trypsinized, fixed in ice cold ethanol and labeled with propidium iodide to quantify their DNA content, as described previously (See, for example, Navara, et al., 2001, Anticancer Drugs. 12:369). Quantitative DNA analysis was performed on a Becton Dickenson Calibur flow cytometer equipped with a Consort 40 computer using the COTFIT program, which includes CELLCY, a cell cycle distribution function that fits DNA content histograms and calculates-the percentages of cells in G, S, and GM phases of the cell cycle, as described, for example, in Uckun et al., 1996, J Biol Chem. 271, 6389.

[1] = system: human infant leukemia (RS4; 11); assay: DNA flow cytometry of cell cycle arrest, RS4;11; assay type: cell-based; settings: 100 μM, 48 hour
Protocol: as §1

[2] = Acute toxicity of intraperitoneal bolus doses in CD-1 mice; assay type: in vivo; settings: female, CD-1, mouse, in vivo, ip; single i.p. bolus; not reached at highest dose
Protocol: 1.2.8 Animals Female CD-1 mice (Body weight: ˜25 g; Age: 7 week old) were purchased, from Charles River Laboratories (Willmington, Mass., USA). MMTV Neu-mice [FVB/N-TgN(MMTV neu)202MUL; Jackson Laboratory, Bar Harbor, Me.] were bred to produce multiple litters. All mice were housed in microisolator cages (Lab Products, Inc., Maywood, N.Y., USA) containing autoclaved bedding in a controlled specific pathogen-free (SPF) environment (12-h light/12-h dark photoperiod, 22±1° C., 60±10% relative humidity), which is fully accredited by the USDA (United States Department of Agriculture). Adult male Lewis rats (Body weight: ˜160 g) were obtained from the specific pathogen-free (SPF) breeding facilities of Harlan Sprague Dawley (Indianapolis, Id., USA) at 14 weeks of age. All husbandry and experimental contact made with the mice and rats maintained SPF conditions. The rats were kept in microisolater cages (Allentown Caging Equipment Co., Inc., Allentown, N.J., USA) containing autoclaved food, water, and bedding. Animal studies were approved by Parker Hughes Institute Animal Care and Use Committee and all animal care procedures 1.5 conformed to the Guide for the Care and Use of Laboratory Animals (National Research Council, National Academy Press, Washington D.C. 1996, USA).
The toxicity profile of Compound 003 in CD-1 mice and Lewis rats was examined, using standard procedures as previously reported for other experimental drugs (Uckun, et al., 2003, Arzneimittelforschun. 53:357; Uckun, et al., 2002, Clin Cancer Res. 8: 1224; Uckun, et al., 2002, Antimicrob Agents Chemother. 46:3428). In brief, mice and rats were treated with intraperitoneal injections of vehicle or Compound 003 at multiple dose levels. Compound 003 was administered as a 0.2 mL (for mice) or 0.5 mL (for rats) bolus injection containing 10% DMSO as a vehicle. Animals were allowed free access to autoclaved standard pellet food and tap water throughout the experiments and monitored daily for morbidity and mortality. Animals were electively sacrificed on day 7 or day 30 to determine the toxicity of Compound 003 by examining their blood chemistry profiles, blood counts, and evaluating multiple organs for the presence of toxic lesions. Blood was collected by intracardiac puncture following anesthesia with ketamine:xylazine and immediately heparinized. The blood chemistry profiles were examined using a Synchron CX5CE Chemical Analyzer (Beckman Instruments, Inc., Fullerton, Calif., USA). Blood counts (red blood cells [RBC], white blood cells [WBC] and platelets [Plt]) were determined using a HESKA Vet ABC-Diff Hematology Analyzer (HESKA Corporation, Fort Collins, Colo., USA). Absolute neutrophil counts (ANC) and absolute lymphocyte counts (ALC) were calculated from WBC values after determining the percentages of neutrophils and lymphocytes by a manual differential count. At the time of necropsy, […] from mice (bone, bone marrow, brain, cecum, heart, kidney, large intestine, liver, lung, lymph node, ovary, pancreas, skeletal muscle, skin, small intestine, spleen, stomach, thymus, thyroid gland, urinary bladder, and uterus, as available) and 21 different tissues from rats (bone, bone marrow, brain, coagulating gland, epididymis, heart, large intestine, small intestine, kidney, liver, lung, pancreas, peripheral nerve/spinal nerve, skeletal muscle, skin, spinal cord, spleen, stomach, testes, thymus, urinary bladder) were collected within 15 minutes after sacrifice, gross pathological findings were documented, organs were preserved in 10% neutral phosphate buffered formalin, and processed for histopathological examination. For histopathologic studies, formalin fixed tissues were dehydrated and embedded in paraffin by routine methods. Glass slides with affixed 4-5 micron tissue sections were prepared and stained with Hemotoxylin and Eosin (H&E). […]

## COC(=O)C(C)NP(=O)(OCC1OC(n2cc(C)c(=O)[nH]c2=O)CC1N=[N+]=[N-])Oc1ccc(OC)cc1 (stereo not drawn) [Compound 003, 3′-azidothymidine 5′-[p-methoxyphenylmethoxyalaninyl phosphate]]
MOLT-3, human T lymphoma
  cell cycle arrest: caused G2 arrest
[1]
  cell cycle arrest: G2M cell cycle arrest
[2]
  LD50: > 80 mg/kg
